Experiment [1] concerns EBV positive human lymphoma HG-3 cells. In words: Alamar blue proliferation assay in HG-3 cells. The following applies: 72 hours; for anti-proliferative effect on HG-3 cells (in words): Alamar blue, FIG. 1 and Table 1; for IC50: Homo sapiens, concentration range 0.01-10 μM, Alamar blue assay, read-out: Anti-proliferative IC50 values. The format is cell-based. As for the experimental part: (§1) One million human EBV positive lymphoma cell lines HG3 and LCL070903 (Rosén et al., 2012) were cultured in RPMI1640 media supplemented with 10% FCS. […] Following treatment cells were harvested and washed with 1× PBS. Total RNA was extracted as described below.
(§2) Alamarblue® and PrestoBlue proliferation assays were performed to determine the growth kinetics of EBV inhibitor treated cells. Alamar blue® and PrestoBlue consists of a cell permeable substrate resazurin. In metabolically active and proliferating cells, resazurin is converted to resorufin due to an intrinsic reducing power of live cells and produces a red fluorescence. Therefore production of resorufin serves as an indicator of the viability of the cell population.
(§3) Proliferation assays were performed by seeding 5000 cells/well in a 96 well plate. […] Each concentration was tested in 4 replicates. To determine the growth kinetics, 10 μl of Alamar blue® or PrestoBlue (Invitrogen) was added to each well and incubated for 4 hours. Readout was taken using Tecan F500 (Tecan) multiplate reader or Varioskan LUX (ThermoFisher) multiplate reader.
In order to determine anti-cancer activity of compounds in oncoviral driven cells, an EBV infected human Chronic Lymphocytic Leukemia cell line HG-3 was used (Rosen et al., 2012). In brief, HG-3 cells were plated in a 96 well plate and treated with an increasing concentration of compounds.

In experiment [2] the test system is BMI1 (EBV target gene). The experiment is described as follows: EBV target gene downregulation (qPCR) in LCL070903 cells: BMI1. The format is cell-based, human. The following applies: 48 hours; for potency in downregulating EBV pathway (BMI1) compared with 6-(4-tert-butylphenoxy)pyridin-3-amine (in words): 10 μM, qRT-PCR, FIG. 3; for inhibition at 10 µM: Homo sapiens, mRNA by qPCR, Table 6. As for the experimental part: EBV positive human B LCL070903 cells were treated with 10 μM of the mentioned compounds for 48 hours. Following treatment, total RNA was extracted and mRNA expression analysed by qRT-PCR.
(§4) One million human EBV positive lymphoma cell lines HG3 and LCL070903 (Rosén et al., 2012) were cultured in RPMI1640 media supplemented with 10% FCS. For RNA expression analysis cells were treated with compounds at 10 μM concentration and for proliferation assay cells were treated at a concentration range of 0.01-100 μM. Following treatment cells were harvested and washed with 1× PBS. Total RNA was extracted as described below.
(§5) Total RNA was extracted from cells using TRIzol® extraction kit (Invitrogen). Briefly, 1×10^6 cells were washed with ice-cold 1× PBS and lysed in 1 ml of TRIzol® solution for 5 minutes at room temperature to dissociate nucleoprotein complexes. Lysed cells were then treated with 200 μl of chloroform and shaked vigorously for 15-30 seconds and incubated at room temperature for 2-3 minutes. The samples were centrifuged at 14000 rpm using Eppendorf table top centrifuge for 10 minutes at 4° C. Following centrifugation, upper aqueous phase was transferred to new eppendorf tubes. To precipitate total RNA 500 μl of […] was added to the separated aqueous phase and incubated at room temperature for 10 minutes. A RNA pellet was obtained by centrifuging the samples at 4° C. for 10 minutes. RNA pellet obtained was washed with 1 ml ice cold 75% ethanol and spun down at 14000 rpm at 4° C. RNA pellet was dried off of excess of ethanol and resuspended in 40 IA DPEC water.
(§6) Total RNA extracted from the cell was used to synthesize cDNA by reverse transcription reaction. Reverse transcription was performed according to one of the two following protocols.
(§7) In first protocol, SuperScript™ RT (Invitrogen) was used for reverse transcription reaction. RNA concentration was measured using NanoDrop®ND-1000 spectrophotometer (Witec AG) and 500 ng of total RNA was mixed with a 10 mM mix of dNTPs and 100 ng of random primers. The reaction mix was incubated at 65° C. for 5 minutes and quickly incubated on ice for 1 minute. Following incubation on ice, 5× first strand buffer and 0.1M DTT were added and mix was incubated for 2 minutes at 25° C. To start the reverse transcription reaction, 200U of SuperScrip™ II RT was added to the reaction mix and incubated at 42° C. for 50 minutes. The reaction was stopped by incubating the reaction mix at 75° C. for 15 minutes.
(§8) In second protocol, reverse transcription was performed using PrimeScript RT Master Mix (Takara). RNA concentration was measured using NanoDrop®ND-1000 spectrophotometer (Witec AG) and 1 μg of total RNA was mixed with 4 μL 5X PrimeScript RT Master Mix in a total reaction volume of 20 μL. The reaction mix was incubated at 37° C. for 15 minutes followed by heat inactivation at 85° C. for 5 seconds.
(§9) QRT-PCR was carried out using 7900 HT Fast Real-Time PCR system (Applied Biosystems) or QuantStudio 3 system (ThermoFisher). Briefly, 12.5 ng of template cDNA was used with a primer concentration of 0.5 μM each and lx SYBR Green dye in a final volume of 10 μL in a 96 well or 384 well plate format.
(§10) Upon infection of human cells, EBV is known to induce cancerous transformation of cells via upregulation of host as well as viral genes (e.g LMP1, EBNA2, BATF1, BMI1 and CD21). To determine the ability of compounds to downregulate EBV driven gene expression, HG-3 and LCL070903 cells were treated with selected compounds and percentage inhibition of EBV target genes was determined by quantitative PCR. As shown in Table 5 and Table 6, compounds down regulate EBV target genes such as BMI1 in HG-3 and LCL070903 cells, respectively (FIGS. 3 and 4).

The subject of experiment [3] is BMI1 (EBV target gene). The experiment is described as follows: EBV target gene downregulation (qPCR) in HG-3 cells: BMI1. It counts as cell-based, human. The conditions noted are these: 48 hours; for potency in downregulating EBV pathway (BMI1) compared with 6-(4-tert-butylphenoxy)pyridin-3-amine (in words): 10 μM, qRT-PCR, FIG. 4; for inhibition at 10 µM: Homo sapiens, mRNA by qPCR, Table 5. As for the experimental part:
EBV positive human B HG-3 cells were treated with 10 μM of the mentioned compounds for 48 hours. Following treatment, total RNA was extracted and mRNA expression analysed by qRT-PCR.
as §4, §5, §6, §7, §8, §9, §10

Experiment [4] relates to EBV positive human B HG-3 cells. In words: PrestoBlue proliferation assay in HG-3 cells. The format is cell-based. The following applies: 72 hours. As for the experimental part: as §1, §2, §3
In brief, HG-3 cells were plated in a 96 well plate and treated with an increasing concentration of compounds.

As to `CC(C)(C)c1ccc(Oc2ccc(NCC#N)cn2)cc1` [Example 6, 2-((6-(4-(tert-Butyl)phenoxy)pyridin-3-yl)amino)acetonitrile], in experiment [1], the “anti-proliferative effect on HG-3 cells (in words)” value (shortened to “anti-proliferative effect”) is given as “demonstrate anti-proliferative effect” and the 50% inhibitory concentration (IC50) came out at 8 µM.

For `CC(C)(C)c1ccc(Oc2ccc(NCc3nn[nH]n3)cn2)cc1` [Example 7, N-((2H-Tetrazol-5-yl)methyl)-6-(4-(tert-butyl)phenoxy)pyridin-3-amine], in experiment [1], the “anti-proliferative effect” value is “demonstrate anti-proliferative effect” and the IC50 was 7.1 µM.

As for `CC(C)(C)c1ccc(Oc2ccc(NCc3nnco3)cn2)cc1` [Example 8, N-((1,3,4-Oxadiazol-2-yl)methyl)-6-(4-(tert-butyl)phenoxy)pyridin-3-amine], in experiment [1], the “anti-proliferative effect” value was “demonstrate anti-proliferative effect” and the IC50 came to 7.9 µM.

For the compound `CC(C)(C)c1ccc(Oc2ccc(NCc3nnc(N)o3)cn2)cc1` [Example 9, 5-(((6-(4-(tert-Butyl)phenoxy)pyridin-3-yl)amino)methyl)-1,3,4-oxadiazol-2-amine], in experiment [1], the “anti-proliferative effect” value is “demonstrate anti-proliferative effect” and the IC50 stood at 6.3 µM.

`CC(C)(C)c1ccc(Oc2ccc(NCc3cccnc3)cc2F)cc1` [Example 18, 4-(4-(tert-Butyl)phenoxy)-3-fluoro-N-(pyridin-3-ylmethyl)aniline]: the “potency in downregulating EBV pathway (BMI1) compared with 6-(4-tert-butylphenoxy)pyridin-3-amine (in words)” value with BMI1 (EBV target gene) [2] and in the experiment with BMI1 (EBV target gene) [3] was “enhanced potency” each time. The figures for the inhibition at 10 µM with BMI1 (EBV target gene) [2] and in the experiment with BMI1 (EBV target gene) [3] were 24% and 10%, respectively.

On to `Cc1cc(Oc2ccc(-c3ccccc3)cc2)ncc1NCc1cccnc1` [Example 22, 6-([1,1′-Biphenyl]-4-yloxy)-4-methyl-N-(pyridin-3-ylmethyl)pyridin-3-amine], for which, in the experiment with BMI1 (EBV target gene) [2], the “potency in downregulating EBV pathway (BMI1) compared with 6-(4-tert-butylphenoxy)pyridin-3-amine (in words)” value is on record as “enhanced potency” and testing at 10 µM gave an inhibition of 18%. Besides, the “anti-proliferative effect” value in experiment [4] (PrestoBlue, FIG. 2 and Table 4) is reported as “demonstrate anti-proliferative effect”. In addition, the IC50 in experiment [4] (Homo sapiens, concentration range 0.03-100 μM, PrestoBlue assay, read-out: Anti-proliferative IC50 values (μM) in HG-3 cells) is 1.5 µM. Also, in the experiment on BMI1 (EBV target gene) [3], the “potency in downregulating EBV pathway (BMI1) compared with 6-(4-tert-butylphenoxy)pyridin-3-amine (in words)” value is “enhanced potency” and at 10 µM the inhibition was 30%.

As for `Fc1cc(NCc2cccnc2)ccc1Oc1ccc(-c2cccnc2)cc1` [Example 26, 3-Fluoro-4-(4-(pyridin-3-yl)phenoxy)-N-(pyridin-3-ylmethyl)aniline], in the experiment on BMI1 (EBV target gene) [2], the “potency in downregulating EBV pathway (BMI1) compared with 6-(4-tert-butylphenoxy)pyridin-3-amine (in words)” value was “enhanced potency” and the inhibition at 10 µM stood at 53%. Further, in the experiment on BMI1 (EBV target gene) [3], the “potency in downregulating EBV pathway (BMI1) compared with 6-(4-tert-butylphenoxy)pyridin-3-amine (in words)” value is on record as “enhanced potency” and the inhibition at 10 µM worked out at 11%.

`COC(c1ccc(NCc2cccnc2)cc1)c1ccc(-c2ccc(F)cc2)cc1` (stereo not drawn) [Example 31, 4-((4′-Fluoro-[1,1′-biphenyl]-4-yl)(methoxy)methyl)-N-(pyridin-3-ylmethyl)aniline]: the “potency in downregulating EBV pathway (BMI1) compared with 6-(4-tert-butylphenoxy)pyridin-3-amine (in words)” value in the experiment with BMI1 (EBV target gene) [2] and with BMI1 (EBV target gene) [3] was “enhanced potency” each time. The values for the inhibition at 10 µM in the experiment with BMI1 (EBV target gene) [2] and in the experiment on BMI1 (EBV target gene) [3] were 48% and 24%, respectively.

As to `Fc1ccc(-c2ccc(Cc3ccc(NCc4cccnc4)cc3)cc2)cc1` [Example 32, 4-((4′-Fluoro-[1,1′-biphenyl]-4-yl)methyl)-N-(pyridin-3-ylmethyl)aniline], the “potency in downregulating EBV pathway (BMI1) compared with 6-(4-tert-butylphenoxy)pyridin-3-amine (in words)” value with BMI1 (EBV target gene) [2] and in the experiment on BMI1 (EBV target gene) [3] was “enhanced potency” in each case. In addition, the results for the inhibition at 10 µM in the experiment with BMI1 (EBV target gene) [2] and in the experiment on BMI1 (EBV target gene) [3] were 45% and 13%, respectively.
